The results in this text go back to ChEMBL document CHEMBL1201862, “PubChem BioAssay data set” (2004).

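48-hour exposure; five concentrations; linearly interpolated endpoints. The concentration for 50% growth inhibition is given as GI50.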 Active and inactive are the calls of the source. Rule as the data show it: active = GI50 up to about 1.1 µM and inactive = higher.

Common to all, as to assay: NCI anticancer screen, dose series, 48 h
Test [1] has as its system OVCAR-3.
In test [2] the test system is KM12.
Test [3] concerns LOX IMVI.
For test [4], the system named is NCI-H23.
The test system of test [5] is SN12C.
Test [6] relates to HCC 2998.
In test [7] the test system is K562.
Test [8] relates to SK-MEL-2.
The test system of test [9] is RXF 393.
Test [10] deals with Malme-3M.
In test [11] the test system is HOP-62.
The subject of test [12] is ACHN.
The test system of test [13] is CCRF-CEM.
The test system of test [14] is HT-29.
Test [15] deals with NCI-H460.
The test system of test [16] is HCT-15.
For test [17], the system named is OVCAR-5.
In test [18] the test system is SR.

For `O=C1SC(c2ccccc2)(c2ccccc2)c2ccccc21`, the GI50 was > 100 µM (inactive) in [1]; 66.8 µM (inactive) in test [2]; > 100 µM (inactive) in test [3]; > 100 µM (inactive) in test [4]; > 100 µM (inactive) in test [5]; > 100 µM (inactive) in [6]. The GI50 is 74.5 µM (inactive) in test [7]; > 100 µM (inactive) in test [8]; 44.1 µM (inactive) in test [9]; > 100 µM (inactive) in [10]; > 100 µM (inactive) in test [11]; 34.3 µM (inactive) in test [12]. For the same compound, the GI50 in [13] is 94.6 µM (inactive); in [14], 57.7 µM (inactive); in test [15], 69.7 µM (inactive); in test [16], more than 100 µM.

Take `[N-]=[N+]=NC1(c2ccccc2)C(=O)C(Cl)=C(c2ccccc2)N(c2ccccc2)C1=O` (centres undefined): the GI50 in [17] is > 100 µM (inactive); in test [1], 65.3 µM (inactive); in [2], > 100 µM (inactive); in test [3], > 100 µM (inactive); in test [4], 64.9 µM (inactive); in test [5], > 100 µM (inactive). Further, the GI50 is > 100 µM (inactive) in [6]; 46.8 µM (inactive) in test [7]; > 100 µM (inactive) in [8]; > 100 µM (inactive) in test [10]; 65.5 µM (inactive) in test [18]; > 100 µM (inactive) in test [11]. In addition, the GI50 in test [12] was > 100 µM (inactive); in test [13] it was 59.7 µM (inactive); in test [14], > 100 µM (inactive); in test [15], > 100 µM (inactive); in test [16], more than 100 µM.

On to `O=C(O)C(CS)NCc1c2ccccc2[n+]([O-])c2ccccc12` (centres undefined), for which the GI50 is > 100 µM (inactive) in [17]; 81.7 µM (inactive) in test [1]; 31.2 µM (inactive) in test [2]; 28.8 µM (inactive) in test [3]; 31 µM (inactive) in test [4]; 34.4 µM (inactive) in [5]. Further, the GI50 in test [6] is 36.1 µM (inactive); in test [7] it was 20.5 µM (inactive); in test [8] it was 45.6 µM (inactive); in test [10], 63.1 µM (inactive); in test [11] it was 66.1 µM (inactive); in test [12] it was 33.4 µM (inactive). For the same compound, the GI50 in [13] is 21.5 µM (inactive); in test [14], 37.8 µM (inactive); in [15], 41.4 µM (inactive); in test [16], 22.8 µM.

`CC(C)(C)NNC(=O)CCn1[nH]c(=O)c(Cl)c(Cl)c1=O`: the GI50 in [17], in test [1], in test [2], in [3], in [4] and in test [5] was > 100 µM (inactive) each time. Besides, the GI50 in [6], in test [7], in test [8], in test [9], in test [10] and in test [11] was > 100 µM (inactive) throughout. The GI50 was > 100 µM (inactive) in [12]; > 100 µM (inactive) in test [13]; > 100 µM (inactive) in test [14]; > 100 µM (inactive) in [15]; more than 100 µM in [16].

In the case of `CC(C)OP(=O)(OC(C)C)/C(=N/Nc1ccc([N+](=O)[O-])cc1)NNC(=O)c1ccccc1`, the GI50 was > 100 µM (inactive) in test [17]; 34.3 µM (inactive) in [1]; 38.3 µM (inactive) in [2]; 21.3 µM (inactive) in test [3]; 24.7 µM (inactive) in [4]; > 100 µM (inactive) in [5]. Also, the GI50 in [6] is 25.8 µM (inactive); in [7], 29.8 µM (inactive); in test [8], 43.2 µM (inactive); in test [10], > 100 µM (inactive); in test [18], 22.3 µM (inactive); in [11], > 100 µM (inactive). Further, the GI50 was 82.4 µM (inactive) in test [12], 17.7 µM (inactive) in test [13], 28.8 µM (inactive) in [15] and 48.1 µM in test [16].

As for `Cc1nc(=O)[nH]c2[nH][nH]c(=O)c12`, the GI50 in test [17], in test [1], in test [2], in test [3], in test [4] and in test [5] was > 100 µM (inactive) in each case. Also, the GI50 in test [7], in test [8], in test [9], in test [10], in [18] and in test [11] was > 100 µM (inactive) throughout. The GI50 is > 100 µM (inactive) in test [12]; > 100 µM (inactive) in test [13]; > 100 µM (inactive) in [14]; > 100 µM (inactive) in [15]; more than 100 µM in test [16].

For the compound `COc1cc2c(cc1OC)-c1c3cc(O)ccc3nn[n+]1CC2`, the GI50 in test [1], in test [2], in test [3], in [4], in test [5] and in [6] was > 100 µM (inactive) in each case. For the same compound, the GI50 in [7], in test [9], in [11], in test [13], in [14] and in test [15] was > 100 µM (inactive) in each case.

In the case of `CCOC(=O)/C(=C/c1ccc(OC)cc1)N(CC)CC`, the GI50 in test [17], in [1], in test [2], in test [3], in test [4] and in [5] was > 100 µM (inactive) in each case. For the same compound, the GI50 in [6], in test [7], in [8], in test [10], in test [18] and in test [11] was > 100 µM (inactive) throughout. The GI50 in test [12] was > 100 µM (inactive); in [13], > 100 µM (inactive); in test [14], > 100 µM (inactive); in test [15], > 100 µM (inactive); in test [16], more than 100 µM.

Take `Cc1ccc(S(=O)(=O)c2ccccn2)cc1`: the GI50 was 46.5 µM (inactive) in [17]; > 100 µM (inactive) in test [1]; > 100 µM (inactive) in [2]; > 100 µM (inactive) in [3]; > 100 µM (inactive) in [4]; > 100 µM (inactive) in test [5]. The GI50 in test [6], in [7], in test [8], in test [9], in test [10] and in [11] was > 100 µM (inactive) each time. In addition, the GI50 was > 100 µM (inactive) in test [12]; > 100 µM (inactive) in test [13]; > 100 µM (inactive) in [14]; > 100 µM (inactive) in test [15]; more than 100 µM in test [16].

`N[C@H](C(=O)O)[C@H](Cl)CC(=O)O`: the GI50 in [17], in test [1], in test [2], in [3], in [4] and in test [5] was > 100 µM (inactive) in each case. The GI50 in test [6], in test [7], in [8], in [9], in test [10] and in [11] was > 100 µM (inactive) throughout. Further, the GI50 in test [12] is > 100 µM (inactive); in [13], > 100 µM (inactive); in test [14] it was > 100 µM (inactive); in [15], > 100 µM (inactive); in test [16] it was more than 100 µM.

Turning to `O=C(CCc1n[nH]c(=S)o1)Nc1ccc(Cl)cc1Cl`, the GI50 in test [17], in test [1], in test [2], in test [4], in test [5] and in [6] was > 100 µM (inactive) throughout. Moreover, the GI50 in test [7] is 38.7 µM (inactive); in test [10], > 100 µM (inactive); in test [11], > 100 µM (inactive); in test [12], > 100 µM (inactive); in test [13], 43.6 µM (inactive); in test [14], 34.3 µM (inactive). In addition, the GI50 in [15] was > 100 µM (inactive); in [16], 20.9 µM.

Turning to `CN(C(=O)/C=C/c1ccccc1)C1C2CN3CCC(O2)C13` (centres undefined), the GI50 in [17], in [1], in test [2], in [3], in test [4] and in test [5] was > 100 µM (inactive) throughout. For the same compound, the GI50 in [6], in [7], in [8], in test [9], in test [10] and in [11] was > 100 µM (inactive) throughout. Besides, the GI50 in test [12] was > 100 µM (inactive); in test [13], > 100 µM (inactive); in test [14], > 100 µM (inactive); in [15], > 100 µM (inactive); in [16], more than 100 µM.

In the case of `COc1cc2c(c(OC)c1OC)-c1ccc(SC)c(=O)cc1[C@@H](NC(=O)c1ccc(OC(C)=O)cc1)CC2`, the GI50 in test [17] is 24.7 µM (inactive); in test [1] it was 0.015 µM (active); in test [2], 0.0198 µM (active); in test [3], 0.0137 µM (active); in test [4], 0.0212 µM (active); in test [5] it was 0.0324 µM (active). The GI50 was 0.0218 µM (active) in [6]; 0.0301 µM (active) in test [7]; 0.018 µM (active) in test [9]; 0.0238 µM (active) in [10]; 0.0419 µM (active) in test [11]; 0.0342 µM (active) in test [12]. The GI50 in test [13] was 0.0329 µM (active); in test [14] it was 0.0248 µM (active); in [15] it was 0.0326 µM (active); in test [16], 0.0229 µM.
